# Test results from US20150282506A1, “FLAVOUR ADDITIVES” (MARS, INCORPORATED, priority 2012, published 2015).
# Tested on: T1R1/T1R3 umami receptor
# Assay: In vitro screening of amino acids for ability to activate the T1R1/T1R3 receptor in the presence of 0.2 mM IMP
# Assay type: cell-based
# Details: FIG. 10
row,SMILES,activation of the T1R1/T1R3 umami receptor
1,C[C@@H](O)[C@H](N)C(=O)O [threonine],do not activate
2,NCCS(=O)(=O)O [taurine],do not activate
3,O=C(O)[C@@H]1CCCN1 [proline],do not activate
4,N=C(N)NCCC[C@H](N)C(=O)O [arginine],do not activate
5,CC[C@H](C)[C@H](N)C(=O)O [isoleucine],do not activate
6,O=C(O)[C@@H]1C[C@@H](O)CN1 [hydroxyproline],do not activate
7,NCCCC[C@H](N)C(=O)O [lysine],do not activate
8,CC(C)[C@H](N)C(=O)O [valine],do not activate

# Continued, values first:
row,activation of the T1R1/T1R3 umami receptor,SMILES
1,do not activate,N[C@@H](CSSC[C@H](N)C(=O)O)C(=O)O [cystine]
2,do not activate,NC(=O)CC[C@H](N)C(=O)O [glutamine]
3,do not activate,N[C@@H](CCC(=O)O)C(=O)O [glutamic acid]
4,do not activate,N[C@@H](CC(=O)O)C(=O)O [aspartic acid]
5,do not activate,NCCC[C@H](N)C(=O)O [ornithine]
